Results from PubChem BioAssay AID1963986 (Molecular Pharmacology Branch, DTP, NCI, 2024).

System: 171881-019-R-J1-PDC tumor spheroid viability
Experiment: Anticancer human tumor 171881-019-R-J1-PDC patient-derived invasive breast carcinoma cell line growth inhibition [PI3K]
Settings: spheroids with HUVEC and MSC; for IC50: curve of first compound; for viability, T/C: stronger effect = lower value
Summary of the method: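 High-throughput combination screen: PI3K inhibitors crossed with targeted small molecules on complex spheroids of tumor cells, HUVEC and MSCs at 37 degrees C, 5% CO2. Top concentration was at or near clinical Cmax (otherwise 10 microM), with half-log decrements.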

[1] = second compound 0.0316 µM, first compound 0.0316 µM
[2] = second compound 0.0316 µM, first compound 0.1 µM
[3] = second compound 0.0316 µM, first compound 0.316 µM
[4] = second compound 0.0316 µM, first compound 1 µM
[5] = second compound 0.0316 µM, first compound 3.16 µM
[6] = second compound 0.0316 µM, first compound 10 µM
[7] = second compound 0.1 µM, first compound 0.0316 µM
[8] = second compound 0.1 µM, first compound 0.1 µM
[9] = second compound 0.1 µM, first compound 0.316 µM
[10] = second compound 0.1 µM, first compound 1 µM
[11] = second compound 0.1 µM, first compound 3.16 µM
[12] = second compound 0.1 µM, first compound 10 µM
[13] = second compound 0.316 µM, first compound 0.0316 µM
[14] = second compound 0.316 µM, first compound 0.1 µM
[15] = second compound 0.316 µM, first compound 0.316 µM
[16] = second compound 0.316 µM, first compound 1 µM
[17] = second compound 0.316 µM, first compound 3.16 µM
[18] = second compound 0.316 µM, first compound 10 µM
[19] = second compound 1 µM, first compound 0.0316 µM
[20] = second compound 1 µM, first compound 0.1 µM
[21] = second compound 1 µM, first compound 0.316 µM
[22] = second compound 1 µM, first compound 1 µM
[23] = second compound 1 µM, first compound 3.16 µM
[24] = second compound 1 µM, first compound 10 µM
[25] = second compound 0.00316 µM, first compound 0.0316 µM
[26] = second compound 0.00316 µM, first compound 0.1 µM
[27] = second compound 0.01 µM, first compound 0.0316 µM
[28] = second compound 0.01 µM, first compound 0.1 µM
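Further: spheroids exposed to compound for 7 days before viability read.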
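Wherever viability, T/C is given: 100% = DMSO vehicle-treated spheroids.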

C#Cc1c(F)ccc2cc(O)cc(-c3ncc4c(N5CC6CCC(C5)N6)nc(OCC56CCCN5CC(F)C6)nc4c3F)c12 (stereo unspecified) + CC(Nc1ncnc2nc[nH]c12)c1cc2cccc(Cl)c2c(=O)n1-c1ccccc1 gave an IC50 (second compound 0.0316 µM) of 562 nM, an IC50 (second compound 0.1 µM) of 655 nM and an IC50 (second compound 0.316 µM) of 440 nM. For the same compound, the IC50 (second compound 1 µM) was 314 nM, the IC50 (second compound 3.16 µM) was 108 nM and the IC50 (second compound 10 µM) was < 31.6 nM. It also gave a viability, T/C [1] of 89.6%, a viability, T/C [2] of 78.5% and a viability, T/C [3] of 54%. The viability, T/C [4] was 44.5%, the viability, T/C [5] was 35.7% and the viability, T/C [6] was 29.4%. It also gave a viability, T/C [7] of 78.6%, a viability, T/C [8] of 80.1% and a viability, T/C [9] of 57%. The viability, T/C [10] was 43.9%, the viability, T/C [11] was 34.7% and the viability, T/C [12] was 24.3%. It also gave a viability, T/C [13] of 83.3%, a viability, T/C [14] of 71% and a viability, T/C [15] of 51.6%. The viability, T/C [16] was 41.8%, the viability, T/C [17] was 29.7% and the viability, T/C [18] was 23.2%. It also gave a viability, T/C [19] of 76%, a viability, T/C [20] of 68.8% and a viability, T/C [21] of 47.9%. For the same compound, the viability, T/C [22] was 34.3%, the viability, T/C [23] was 26.6% and the viability, T/C [24] was 19.7%. For the same compound, the viability, T/C (second compound 3.16 µM, first compound 0.0316 µM) was 72.2%, the viability, T/C (second compound 3.16 µM, first compound 0.1 µM) was 50.1% and the viability, T/C (second compound 3.16 µM, first compound 0.316 µM) was 37.1%. It also gave a viability, T/C (second compound 3.16 µM, first compound 1 µM) of 23.9%, a viability, T/C (second compound 3.16 µM, first compound 3.16 µM) of 18.2% and a viability, T/C (second compound 3.16 µM, first compound 10 µM) of 13.4%. For the same compound, the viability, T/C (second compound 10 µM, first compound 0.0316 µM) was 49.8%, the viability, T/C (second compound 10 µM, first compound 0.1 µM) was 32.6% and the viability, T/C (second compound 10 µM, first compound 0.316 µM) was 21.5%. For the same compound, the viability, T/C (second compound 10 µM, first compound 1 µM) was 16.9%, the viability, T/C (second compound 10 µM, first compound 3.16 µM) was 10.3% and the viability, T/C (second compound 10 µM, first compound 10 µM) was 6.78%.
For CC(=O)c1c(C)c2cnc(Nc3ccc(N4CCNCC4)cn3)nc2n(C2CCCC2)c1=O + CC(Nc1ccc2c(c1)OCCn1cc(N3C(=O)OCC3C(F)F)nc1-2)C(N)=O, the IC50 (second compound 0.00316 µM) was > 100 nM, the IC50 (second compound 0.01 µM) was > 100 nM and the IC50 (second compound 0.0316 µM) was > 100 nM. For the same compound, the IC50 (second compound 0.1 µM) was < 0.316 nM, the IC50 (second compound 0.316 µM) was < 0.316 nM and the IC50 (second compound 1 µM) was < 0.316 nM. The viability, T/C (second compound 0.00316 µM, first compound 0.000316 µM) was 85.7%, the viability, T/C (second compound 0.00316 µM, first compound 0.001 µM) was 85.3% and the viability, T/C (second compound 0.00316 µM, first compound 0.00316 µM) was 94.5%. The viability, T/C (second compound 0.00316 µM, first compound 0.01 µM) was 95.2%, the viability, T/C [25] was 100% and the viability, T/C [26] was 86.7%. For the same compound, the viability, T/C (second compound 0.01 µM, first compound 0.000316 µM) was 74.2%, the viability, T/C (second compound 0.01 µM, first compound 0.001 µM) was 82.3% and the viability, T/C (second compound 0.01 µM, first compound 0.00316 µM) was 78.5%. It also gave a viability, T/C (second compound 0.01 µM, first compound 0.01 µM) of 85.9%, a viability, T/C [27] of 89.2% and a viability, T/C [28] of 73%. For the same compound, the viability, T/C (second compound 0.0316 µM, first compound 0.000316 µM) was 50.3%, the viability, T/C (second compound 0.0316 µM, first compound 0.001 µM) was 58.7% and the viability, T/C (second compound 0.0316 µM, first compound 0.00316 µM) was 53.9%. The viability, T/C (second compound 0.0316 µM, first compound 0.01 µM) was 49.1%, the viability, T/C [1] was 64.5% and the viability, T/C [2] was 58.6%. The viability, T/C (second compound 0.1 µM, first compound 0.000316 µM) was 40.4%, the viability, T/C (second compound 0.1 µM, first compound 0.001 µM) was 42.6% and the viability, T/C (second compound 0.1 µM, first compound 0.00316 µM) was 42%. For the same compound, the viability, T/C (second compound 0.1 µM, first compound 0.01 µM) was 44.3%, the viability, T/C [7] was 47.7% and the viability, T/C [8] was 42.1%. It also gave a viability, T/C (second compound 0.316 µM, first compound 0.000316 µM) of 26.7%, a viability, T/C (second compound 0.316 µM, first compound 0.001 µM) of 27% and a viability, T/C (second compound 0.316 µM, first compound 0.00316 µM) of 28%. For the same compound, the viability, T/C (second compound 0.316 µM, first compound 0.01 µM) was 28%, the viability, T/C [13] was 30.8% and the viability, T/C [14] was 29%. It also gave a viability, T/C (second compound 1 µM, first compound 0.000316 µM) of 20.4%, a viability, T/C (second compound 1 µM, first compound 0.001 µM) of 20.4% and a viability, T/C (second compound 1 µM, first compound 0.00316 µM) of 24.1%. It also gave a viability, T/C (second compound 1 µM, first compound 0.01 µM) of 24.2%, a viability, T/C [19] of 27.8% and a viability, T/C [20] of 25.9%.
In the case of CC1(C)CCC(CN2CCN(c3ccc(C(=O)NS(=O)(=O)c4ccc(NCC5CCOCC5)c([N+](=O)[O-])c4)c(Oc4cnc5[nH]ccc5c4)c3)CC2)=C(c2ccc(Cl)cc2)C1 + COc1c(OCCCN2CCOCC2)ccc2c3n(c(=NC(=O)c4cnc(N)nc4)nc12)CCN3, the IC50 (second compound 0.00316 µM) is reported as > 10000 nM, the IC50 (second compound 0.01 µM) is reported as 1070 nM and the IC50 (second compound 0.0316 µM) is reported as < 31.6 nM. The IC50 (second compound 0.1 µM) was < 31.6 nM, the IC50 (second compound 0.316 µM) was < 31.6 nM and the IC50 (second compound 1 µM) was < 31.6 nM. The viability, T/C [25] was 67.9%, the viability, T/C [26] was 71.5% and the viability, T/C (second compound 0.00316 µM, first compound 0.316 µM) was 76.5%. For the same compound, the viability, T/C (second compound 0.00316 µM, first compound 1 µM) was 75.8%, the viability, T/C (second compound 0.00316 µM, first compound 3.16 µM) was 50.7% and the viability, T/C (second compound 0.00316 µM, first compound 10 µM) was 56.9%. It also gave a viability, T/C [27] of 50.3%, a viability, T/C [28] of 54.2% and a viability, T/C (second compound 0.01 µM, first compound 0.316 µM) of 52.1%. For the same compound, the viability, T/C (second compound 0.01 µM, first compound 1 µM) was 50.6%, the viability, T/C (second compound 0.01 µM, first compound 3.16 µM) was 36.4% and the viability, T/C (second compound 0.01 µM, first compound 10 µM) was 46.5%. The viability, T/C [1] was 31.2%, the viability, T/C [2] was 27.1% and the viability, T/C [3] was 26.7%. For the same compound, the viability, T/C [4] was 31.9%, the viability, T/C [5] was 27.6% and the viability, T/C [6] was 27.7%. For the same compound, the viability, T/C [7] was 9.62%, the viability, T/C [8] was 8.56% and the viability, T/C [9] was 8.91%. For the same compound, the viability, T/C [10] was 8.46%, the viability, T/C [11] was 8.91% and the viability, T/C [12] was 7.62%. It also gave a viability, T/C [13] of 2.51%, a viability, T/C [14] of 1.88% and a viability, T/C [15] of 2.5%. The viability, T/C [16] was 2.1%, the viability, T/C [17] was 1.72% and the viability, T/C [18] was 1.63%. The viability, T/C [19] was 1.35%, the viability, T/C [20] was 0.89% and the viability, T/C [21] was 1.13%. The viability, T/C [22] was 0.95%, the viability, T/C [23] was 1.02% and the viability, T/C [24] was 0.92%.
